These results are taken from patent publication US20260258017A1, “CO-CRYSTAL FORMS OF SELINEXOR” (Karyopharm Therapeutics Inc., priority 2019, published 2026).

A short description of data set [1]: DVS moisture sorption isotherm. The class given is physicochemical. The note with it: 25° C., 0-90% RH, 10% RH intervals. How it is done: Sorption isotherms are obtained using a TA Instruments Q5000 SA DVS. The sample temperature is maintained at 25° C. by the instrument controls. The humidity is controlled by mixing streams of dry and wet nitrogen, with a total flow rate of 200 ml/min. The relative humidity is measured by a calibrated probe (dynamic range of […]), located near the sample. The weight change, (mass relaxation) of the sample as a function of % RH is constantly monitored by a microbalance (accuracy 0.0001 mg). Typically, 3-10 mg of sample is placed in a tared mesh stainless steel basket under ambient conditions. The sample is loaded and unloaded at 50% RH and 25° C. (typical room conditions). A moisture sorption isotherm is performed as outlined below (2 scans per complete cycle). The standard isotherm is performed at 25° C. at 10% RH intervals over a 0-90% RH range. Typically, a triple cycle is carried out. Data analysis is carried out using TA Instruments Universal Analysis 2000. [table]

For data set [2] the following is noted: comparison statement for selinexor itself; no medium given; cited from earlier work.

Structures are written as SMILES.

As to `O=C(/C=C\n1cnc(-c2cc(C(F)(F)F)cc(C(F)(F)F)c2)n1)NNc1cnccn1` [selinexor, (Z)-3-(3-(3,5-bis(trifluoromethyl)phenyl)-IH-I,2,4-triazol-1-yl)-N′-(pyrazin-2yl)acrylohydrazide], in data set [1], the DVS water adsorption entry is reported as “does not adsorb water”. Besides, the solubility result in data set [2] is reported as “low solubility”.
